Usually IC50 stands for the concentration needed to halve the response being measured. A word on the clearance: it is the volume of plasma or blood freed of the substance per unit of time. Broadly, the bioavailability is the share of a dose that reaches the circulation, judged against a reference dose that is usually intravenous. Broadly, the half-life is how long it takes for the measured level to halve. A word on the Cmax: it is the peak of the concentration-time curve.

Molecules are shown by their SMILES.

The test system of one data set is HT29 tumor cells. Description: In vitro cell proliferation inhibition (CellTiterGlo). In kind it is cell-based. The conditions noted are these: Homo sapiens, HT-29. Here is the method:
The ability of compounds to inhibit the proliferation of HT29 tumor cells was measured.
The assay compound was dissolved in 100% DMSO to prepare 10 mM stock solution.
• a) UV light of a biological safety cabin was turned on, and 30 minutes were counted down; • b) In a 37° C. water bath, RPMI1640 medium and trypsin were preheated; • c) After completion of the UV irradiation, the biological safety cabin was opened. The preheated medium, trypsin and phosphate buffered saline (PBS), etc. were wiped with alcohol and placed in the biological safety cabin; • d) HT29 cells were removed from the incubator, and the old medium was removed in biological safety cabin. 10 ml of PBS was added. […] The culture vessel was shaken horizontally so that the trypsin evenly covered the cells at the bottom, and placed in an incubator for 2 minutes; • f) Cell digestion was stopped with complete medium, and the cell suspension was pipetted to homogeneity and counted; • g) According to the result of cell counting, the density of cell suspension was adjusted to 1500 cells per well, and the cell suspension was seeded at 50 μl per well; • h) The stock solution of compounds was serially diluted in DMSO solution, and compounds were added to cell plate using Tecan; • i) The compound-added cell plate and CellTiterGlo were equilibrated at room temperature, and 25 microliters of CellTiterGlo was then added to each well. […]
A general note: ATP-based viability assays read luminescence as a measure of living cells.

Data set [1] in a line: In vivo PK study in SD rats. The conditions noted are these: male SD rats. The procedure: Male SD rats were used as assay animals. After a single administration, the plasma concentration of the compound was measured and the pharmacokinetic behavior was evaluated.
Six healthy adult male SD rats were selected, wherein 3 rats were in an intravenous injection group and 3 rats were in an oral group. The vehicle in the intravenous injection group was 5% DMSO+95% (20% HP-β-CD). The compound to be assayed was mixed with an appropriate amount of vehicle for intravenous injection, vortexed and sonicated to prepare a clear solution of 0.2 mg/mL. The clear solution was filtered by a microporous membrane, and then ready for use. The vehicle in the oral group was 5% DMSO+95% (20% HP-β-CD). The compound to be assayed was mixed with the vehicle, vortexed and sonicated to prepare a solution of 1 mg/mL. SD rats were administered 1 mg/kg intravenously or 10 mg/kg orally, and then whole blood was collected for a certain period. Plasma was prepared. The drug concentration was analyzed by LC-MS/MS method, and the pharmacokinetic parameters were calculated by Phoenix WinNonlin software (Pharsight, USA).

The next data set has as its system monkey plasma albumin. The experiment in a line: Plasma protein binding (PPB), monkey plasma. Type of data set: in vitro ADME. The conditions noted are these: ultracentrifugation, 37° C., 4 h. Here is the method:
The binding degree of the assay compound to human/mouse/rat/canine/monkey plasma albumin was studied.
• 1) Matrix preparation: on the day of the assay, plasma was thawed in cold water and centrifuged at 3220 rpm for 5 min to remove all clots. The pH of the resulting plasma was measured and adjusted to 7.4±0.1 using 1% phosphoric acid or 1N sodium hydroxide as needed. • 2) Dilution procedure for the assay compound: the assay compound was dissolved in dimethyl sulfoxide (DMSO) to prepare stock solutions with concentrations of 10 mM and 2 mM, respectively. A 40 μM working solution was prepared by diluting 2 μL of stock solution (2 mM) with 98 μL of DMSO. A 400 μM working solution of the control compound was prepared by diluting 10 μL of stock solution with 240 μL of DMSO. The working solution of the compound (5 μL) was mixed well with a blank matrix (995 μL) at a ratio of 1:200 to prepare a loading matrix.
• a) An equal volume of 30 μL of loading matrix (n=2) was transferred to a sample collection plate to prepare a time 0 (TO) sample for residue determination. The sample was immediately matched with the corresponding blank buffer to a final volume of 60 μL, and the volume ratio of plasma to buffer in each well was 1:1. […] The mixture was centrifuged at 4000 rpm for 20 min and 100 μL of supernatant from each sample was analyzed by LC-MS/MS.

`Cc1cccc(CN2C(=O)c3nc(-c4nc(Nc5ccnn5C)ncc4C)sc3C2(C)C)n1` [WX001] had an IC50 in the data set on HT29 tumor cells of 21 nM. Further, the “Oral DNAUC (AUCPO/Dose)” value in data set [1] (10 mg/kg orally) is on record as 302.12 nM · h/mpk. For the same compound, the clearance in data set [1] (rat, plasma, iv, 1 mg/kg intravenously) amounted to 24.8 mL/min/kg. In addition, the Vd in data set [1] (rat, plasma, iv, 1 mg/kg intravenously, read-out: Vdss) came out at 1.06 L/kg. In addition, the bioavailability in data set [1] (rat, plasma, oral, 1 mg/kg intravenously / 10 mg/kg orally, read-out: F % (oral bioavailability)) came to 21%. Besides, the half-life in data set [1] (rat, plasma, single administration) is 2.6 h. This compound returned a Cmax in data set [1] (rat, po, 10 mg/kg orally, plasma) of 1010 nM. For the same compound, in the data set on monkey plasma albumin, the “Plasma protein binding rate (unbound %)” value is recorded as 2.6%.

The record behind these values is patent US20240300975A1, “DIMETHYL-SUBSTITUTED THIAZOLOLACTAM COMPOUND AND USE THEREOF” (D3 Bio (Wuxi) Co., Ltd., priority 2021, published 2024).
